Laboratory results as given in patent publication US20160101108A1, “PRINTED DOSAGE FORMS” (ÅBO AKADEMI UNIVERSITY, priority 2013, published 2016).

Assay: Actual dose of vitamin on inkjet-printed areas, immersed in water, by UV/Vis absorbance
Format: physicochemical
Settings: for Vitamin B3 dose, measured: 262 nm
Experimental: Two different ink solutions were used to print the vitamins onto the substrates. […] The solutions were filtered with 0.2 μm polypropylene membrane filter (Whatman, GE Healthcare, Piscataway, N.J., USA) before printing. Inkjet printing was performed with a […] printer (Fujifilm […] Clara, Calif., USA). In the printer, a MEMS-based cartridge-styled printhead with 16 nozzles linearly spaced at 254 μm that produce a nominal drop size of […] was used. Printing was performed in ambient conditions (relative humidity 45.5±5%, 21±1° C.) with a single nozzle using firing voltage of 35 V. The cartridge temperature was 30° C., and the drops were deposited at a drop spacing of 10 μm, 20 μm and 30 μm. The vitamins were printed in squares of 1 cm×1 cm on normal copy paper (n=6) and on multilayer curtain coated paper (n=1). […] Each printed area was immersed into predetermined amount of water and vigorously shaken. […] The calibration curves were done in water, as well.

SMILES | Vitamin B3 dose, measured (drop spacing 10, 4 h incubation in water, 1 cm x 1 cm printed area, theoretical 0.501 mg) [mg] | Vitamin B3 dose, measured (drop spacing 10, 24 h incubation in water, theoretical 0.501 mg) [mg] | Vitamin B3 dose, measured (drop spacing 20, 4 h incubation in water, 1 cm x 1 cm printed area, theoretical 0.125 mg) [mg] | Vitamin B3 dose, measured (drop spacing 20, 24 h incubation in water, theoretical 0.125 mg) [mg] | Vitamin B3 dose, measured (drop spacing 30, 4 h incubation in water, 1 cm x 1 cm printed area, theoretical 0.056 mg) [mg] | Vitamin B3 dose, measured (drop spacing 30, 24 h incubation in water, theoretical 0.056 mg) [mg] | Vitamin B2 dose, measured (drop spacing 10, 4 h incubation in water, 267 nm, theoretical 0.32 mg) [mg] | Vitamin B2 dose, measured (drop spacing 10, 4 h incubation in water, 373 nm, theoretical 0.32 mg) [mg] | Vitamin B2 dose, measured (drop spacing 10, second set of rows (no time heading printed), 267 nm, theoretical 0.32 mg) [mg] | Vitamin B2 dose, measured (drop spacing 10, second set of rows (no time heading printed), 373 nm, theoretical 0.32 mg) [mg] | Vitamin B2 dose, measured (drop spacing 20, 4 h incubation in water, 267 nm, theoretical 0.08 mg) [mg] | Vitamin B2 dose, measured (drop spacing 20, 4 h incubation in water, 373 nm, theoretical 0.08 mg) [mg] | Vitamin B2 dose, measured (drop spacing 20, second set of rows (no time heading printed), 267 nm, theoretical 0.08 mg) [mg] | Vitamin B2 dose, measured (drop spacing 20, second set of rows (no time heading printed), 373 nm, theoretical 0.08 mg) [mg] | Vitamin B2 dose, measured (drop spacing 30, 4 h incubation in water, 267 nm, theoretical 0.035 mg) [mg] | Vitamin B2 dose, measured (drop spacing 30, 4 h incubation in water, 373 nm, theoretical 0.035 mg) [mg] | Vitamin B2 dose, measured (drop spacing 30, second set of rows (no time heading printed), 267 nm, theoretical 0.035 mg) [mg] | Vitamin B2 dose, measured (drop spacing 30, second set of rows (no time heading printed), 373 nm, theoretical 0.035 mg) [mg]
O=C(O)c1cccnc1 [Vitamin B3, niacin] | 0.7594 | 0.7323 | 0.2213 | 0.2142 | 0.0717 | 0.0687 |  |  |  |  |  |  |  |  |  |  |  | 
Cc1cc2nc3c(=O)[nH]c(=O)nc-3n(C[C@H](O)[C@H](O)[C@H](O)COP(=O)(O)O)c2cc1C [Vitamin B2, riboflavin sodium phosphate] |  |  |  |  |  |  | 0.6255 | 0.6459 | 0.5847 | 0.6141 | 0.1337 | 0.1403 | 0.1199 | 0.1276 | 0.0623 | 0.0658 | 0.0521 | 0.0560
